Measurements from PMC4085797, “Synthetic Inositol Phosphate Analogs Reveal that PPIP5K2 Has a Surface-Mounted Substrate Capture Site that Is a Target for Drug Discovery” (Chemistry & Biology, 2014).
Changes are numbered by the printed parent chain. Read-outs that look alike come from different tables or passages of the source.

Columns and labels:
Type in all cases: biochemical
[1] = biological target: T1, PPIP5K2^KD (kinase domain of human PPIP5K2) (Homo sapiens, UniProt O43314); test: ATPase activity of PPIP5K2KD (Pi release); conditions: for stimulation of ATPase activity (in words): 25 μM, wild-type enzyme, Figure 2
T1 construct: The kinase domain of human PPIP5K2 (PPIP5K2^KD; residues 1–366); made in house
T1 sequence (O43314 1-366): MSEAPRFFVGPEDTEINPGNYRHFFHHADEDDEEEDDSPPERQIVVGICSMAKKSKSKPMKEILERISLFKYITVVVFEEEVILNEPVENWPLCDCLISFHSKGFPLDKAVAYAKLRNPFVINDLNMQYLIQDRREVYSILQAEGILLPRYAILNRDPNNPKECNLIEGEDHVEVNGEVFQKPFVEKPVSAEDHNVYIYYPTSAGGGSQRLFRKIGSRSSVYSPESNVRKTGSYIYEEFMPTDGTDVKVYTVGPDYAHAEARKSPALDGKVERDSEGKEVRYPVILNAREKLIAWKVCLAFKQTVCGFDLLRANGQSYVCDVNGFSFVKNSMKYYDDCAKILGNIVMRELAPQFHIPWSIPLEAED
Protocol: (§1) The initial InsP6 concentration was either 500 nM, 70 nM, or 40 nM. Various concentrations of 2,5-di-O-Bn-InsP4 were present as indicated. Radioactivity was assessed using an in-line Flo1 detector. The ADP-driven dephosphorylation of 100 nM 1,5-[PP]2-InsP4 by PPIP5K2^KD was usually determined by a luminescence-based assay of ATP accumulation ([Riley et al., 2012; Weaver et al., 2013]). The IC50 values were determined using GraphPad Prism v6.02 (n ≥ 3). In some experiments, 1,5-[PP]2-[^3H]InsP4 dephosphorylation by PPIP5K2^KD was assayed in 50 μl buffer containing 50 mM KCl, 20 mM HEPES pH 7.0, 7 mM MgSO4, 5 mM ADP, 1 mM EDTA. Reactions were then quenched, neutralized, and analyzed with HPLC using a Partisphere SAX column ([Weaver et al., 2013]); 1 ml fractions were collected for liquid scintillation spectrometry. The ATPase activity of PPIP5K2^KD (10–270 μg/ml) was assayed from Pi release following incubation at 37°C for 120–180 min in 20 μl reaction mixtures containing 20 mM Tris/HCl, pH 7.5, 10 mM ATP, 100 mM KCl, 0.1 mM EDTA, and 13 mM MgCl2.

[2] = biological target: T1, PPIP5K2^KD (kinase domain of human PPIP5K2); test: Reverse-kinase assay: ADP-driven dephosphorylation of 1,5-[PP]2-InsP4, luminescence-based assay of ATP accumulation; conditions: for IC50: 100 nM [PP]2-InsP4, key of Figure 4B, n = 3, read-out: IC50, inhibition of ADP-driven dephosphorylation of [PP]2-InsP4
Protocol: The six compounds that were selected for the dose-response curves in the assays of ATP hydrolysis (Figure 4A) were now investigated for their effects upon diphosphoinositol polyphosphate metabolism by PPIP5K2^KD (Figure 4B). We used a high-throughput reverse-kinase assay that records ATP generated from ADP during the dephosphorylation of 100 nM 1,5-[PP]2-InsP4 ([Riley et al., 2012; Weaver et al., 2013]). Each of the tested analogs inhibited [PP]2-InsP4 metabolism by PPIP5K2^KD (Figure 4B). […] However, the inhibition by 2,5-di-O-Bn-InsP4 (10) was more unexpected because due to its bulk, and its less negative charge compared to physiological substrates, we predict it to be a poor ligand for the active site of the highly specific PPIP5K2^KD ([Wang et al., 2012]). Nevertheless, its ability to inhibit reverse-kinase activity was directly confirmed by high-performance liquid chromatography (HPLC) analysis of [PP]2-[^3H]InsP4 dephosphorylation (Figures S1A–S1C available online).
as §1

PPIP5K2^KD R213A mutant = biological target: T2, PPIP5K2^KD R213A mutant (Homo sapiens, UniProt O43314, R213A); test: ATPase activity of R213A mutant; conditions: Figures 7B and 7C
T2 construct: The kinase domain of human PPIP5K2 (PPIP5K2^KD; residues 1–366); made in house
T2 sequence (O43314 1-366 R213A): T1 sequence (O43314 1-366) with R213A
Protocol: as §1

PPIP5K2^KD E192G mutant = biological target: T3, PPIP5K2^KD E192G mutant (Homo sapiens, UniProt O43314, E192G); test: ATPase activity of E192G mutant
T3 construct: The kinase domain of human PPIP5K2 (PPIP5K2^KD; residues 1–366); made in house
T3 sequence (O43314 1-366 E192G): T1 sequence (O43314 1-366) with E192G
Protocol: as §1
Protein Expression, Purification, Crystallization and Structure Determination […]
The structure was further manually rebuilt with COOT and refined with PHENIX and
REFMAC from the CCP4 package. Ligand topology and parameter files were prepared using
the PRODRG server. The molecular graphics representations were prepared with the program
PyMol (Schrödinger, LLC). The 2D ligand-protein interaction diagrams were generated by
LigPlot+. Atomic coordinates and structure factors have been deposited with the Protein Data
Bank with accession codes: 4NZM, 4NZN, 4NZO.
Mutants were generated using a site-directed mutagenesis kit (Stratagene). Pairs of complementary
primers were designed as shown below, with mutagenic primers underlined (only 5’ primers are
All mutated constructs were sequenced. Mutant proteins were expressed and purified as for wild-

Row | Structure (SMILES) | stimulation of ATPase activity (in words) [1] | EC50 ([1]; Figure 4A, read-out: EC50, stimulation of ATPase activity) [nM] | IC50 [2] [nM] | stimulation of ATPase activity vs wild-type (in words) (PPIP5K2^KD R213A mutant) | rate of ligand-stimulated ATPase activity vs wild-type (in words) (PPIP5K2^KD E192G mutant) | stimulation of ATP hydrolysis ([1]; 25 μM analog) [fold] | EC50 ([1]; dose-response, key of Figure 4A, n = 3, read-out: EC50, stimulation of ATPase activities) [nM] | inhibition of [PP]2-InsP4 metabolism (in words) ([2]; 100 nM 1,5-[PP]2-InsP4, Figure 4B)
1 | O=P(O)(O)O[C@@H]1[C@@H](OCc2ccccc2)[C@H](OP(=O)(O)O)[C@@H](OP(=O)(O)O)[C@@H](OCc2ccccc2)[C@H]1OP(=O)(O)O [compound 10, 2,5-di-O-Bn-InsP4] | highest degree of ATPase activity among all of the analogs | 340 | 170 | substantially impaired degree of stimulation | neither of these particular mutations altered the rate | – | – | –
2 | O=C(CP(=O)(O)O)O[C@@H]1[C@@H](OP(=O)(O)O)[C@H](OP(=O)(O)O)[C@H](OCc2ccccc2)[C@H](OP(=O)(O)O)[C@H]1OP(=O)(O)O [compound 2, 2-O-benzyl-5-O-α-phosphonoacetyl-myo-inositol 1,3,4,6-tetrakisphosphate] | strongly activated | – | 420 | substantially impaired degree of stimulation | neither of these particular mutations altered the rate | 9 | 550 | equally efficient
